# Like-named read-outs stand apart in the source and are kept apart here.
# Test system: M. bovis BCG
# Assay: microbe, parasite or virus in culture
# Assay type: cell-based, Mycobacterium bovis BCG
# Conditions: Mycobacterium tuberculosis variant bovis BCG, BCG, 192 h
# [1] = read-out: Antimycobacterial activity % inhibition at 100 μg/ml Aerobic/Active stage
# [2] = read-out: Antimycobacterial activity % inhibition at 100 μg/ml Anearobic/Dormant stage
Structure (SMILES),inhibition at 100 µg/mL [1],inhibition at 100 µg/mL [2]
"C#CCS(=O)(=O)c1nc(C(C)(C)C)n[nH]1 [7c, 3-tert-butyl-5-(prop-2-ynylsulfonyl)-1H-1,2,4-triazole]",76%,74%
"C#CCSc1nc(C(C)(C)C)nn1CC=C [8a, 1-allyl-3-tert-butyl-5-(prop-2-ynylthio)-1H-1,2,4-triazole]",76%,74%
"C=CCSc1nc[nH]n1 [4a, 3-allylthio-1H 1,2,4 triazole]",51%,32%
"C#CCSc1ncnn1CC=C [9a, 1-allyl-5-(prop-2-ynylthio)-1H-1,2,4-triazole]",40%,22%
"C=CCSc1nc(C)n[nH]1 [4b, 3-(allylthio)-5-methyl-1H-1,2,4-triazole]",98%,97%
c1ccc(Cn2cc(CSc3ncn[nH]3)nn2)cc1 [1a],3%,4%
"C=CCSc1nc(-c2ccc([N+](=O)[O-])cc2)n(CC=C)n1 [5d, 1-allyl-3-(allylthio)-5-(4-nitrophenyl)-1H-1,2,4-triazole]",15%,18%
"COc1ccc(-c2nc(SCc3cn(Cc4ccccc4)nn3)nn2Cc2cn(Cc3ccccc3)nn2)cc1 [2e, 1-benzyl-4-((1-((1-benzyl-1H-1,2,3-triazol-4-yl)methyl)-5-(4-methoxyphenyl)-1H-1,2,4-triazol-3-ylthio)methyl)-1H-1,2,3-triazole]",1%,8%
"COc1ccc(-c2nc(SCc3cn(Cc4ccccc4)nn3)n(Cc3cn(Cc4ccccc4)nn3)n2)cc1 [3e, 1-benzyl-4-((1-((1-benzyl-1H-1,2,3-triazol-4-yl)methyl)-3-(4-methoxyphenyl)-1H-1,2,4-triazol-5-ylthio)methyl)-1H-1,2,3-triazole]",86%,82%
"C=CCSc1nc(C(C)(C)C)n[nH]1 [4c, 3-(allylthio)-5-tert-butyl-1H-1,2,4-triazole]",57%,39%
"C=CCn1nc(Br)nc1Br [11b, 1-allyl-3,5-dibromo-1H-1,2,4-triazole]",12%,21%
"C#CCSc1nc(C(C)(C)C)n(CC=C)n1 [8b, 1-allyl-5-tert-butyl-3-(prop-2-ynylthio)-1H-1,2,4-triazole]",96%,91%
"C=CCSc1nc(C(C)(C)C)n(CC=C)n1 [5c, 1-allyl-3-(allylthio)-5-tert-butyl-1H-1,2,4-triazole]",45%,36%
"C#CCS(=O)(=O)c1n[nH]c(-c2ccc(OC)cc2)n1 [7e, 3-(4-methoxyphenyl)-5-(prop-2-ynylsulfonyl)-1H-1,2,4-triazole]",88%,82%
"C=CCSc1nc(-c2ccc(OC)cc2)nn1CC=C [6e, 1-allyl-5-(allylthio)-3-(4-methoxyphenyl)-1H-1,2,4-triazole]",88%,83%
"C=CCSc1nc(-c2ccc(Cl)cc2)nn1CC=C [6f, 1-allyl-5-(allylthio)-3-(4-chlorophenyl)-1H-1,2,4-triazole]",26%,14%
"C=CCSc1nc(-c2ccc([N+](=O)[O-])cc2)n[nH]1 [4d, 3-(allylthio)-5-(4-nitrophenyl)-1H-1,2,4-triazole]",25%,14%
"C=C(C)Cn1nc(Br)nc1Br [11c, 3,5-dibromo-1-(2-methylallyl)-1H-1,2,4-triazole]",9%,19%
"C=CCSc1nc(C)n(CC=C)n1 [5b, 1-allyl-3-(allylthio)-5-methyl-1H-1,2,4-triazole]",25%,15%
"C=CCSc1ncnn1CC=C [6a, 1-allyl-5-(allylthio)-1H-1,2,4-triazole]",65%,60%
"Clc1ccc(-c2nc(SCc3cn(Cc4ccccc4)nn3)n(Cc3cn(Cc4ccccc4)nn3)n2)cc1 [3f, 1-benzyl-4-((1-((1-benzyl-1H-1,2,3-triazol-4-yl)methyl)-3-(4-chlorophenyl)-1H-1,2,4-triazol-5-ylthio)methyl)-1H-1,2,3-triazole]",31%,4%
"Cc1nc(SCc2cn(Cc3ccccc3)nn2)n(Cc2cn(Cc3ccccc3)nn2)n1 [3b, 1-benzyl-4-((1-((1-benzyl-1H-1,2,3-triazol-4-yl)methyl)-3-methyl-1H-1,2,4-triazol-5-ylthio)methyl)-1H-1,2,3-triazole]",85%,76%
"Brc1nc(Br)n(Cc2cn(Cc3ccccc3)nn2)n1 [11d, 1-benzyl-4-((3,5-dibromo-1H-1,2,4-triazol-1-yl)methyl)-1H-1,2,3-triazole]",2%,13%

Structure (SMILES),inhibition at 100 µg/mL [1],inhibition at 100 µg/mL [2]
"C#CCS(=O)(=O)c1nc[nH]n1 [7a, 5-(prop-2-ynylsulfonyl)-1H-1,2,4-triazole]",42%,23%
"CC(C)(C)c1nc(SCc2cn(Cc3ccccc3)nn2)n(Cc2cn(Cc3ccccc3)nn2)n1 [3c, 1-benzyl-4-((1-((1-benzyl-1H-1,2,3-triazol-4-yl)methyl)-3-tert-butyl-1H-1,2,4-triazol-5-ylthio)methyl)-1H-1,2,3-triazole]",10%,13%
"C#CCn1nc(SCC=C)nc1C(C)(C)C [8d, 3-(allylthio)-5-tert-butyl-1-(prop-2-ynyl)-1H-1,2,4-triazole]",98%,82%
"Cc1nc(SCc2cn(Cc3ccccc3)nn2)nn1Cc1cn(Cc2ccccc2)nn1 [2b, 1-benzyl-4-((1-((1-benzyl-1H-1,2,3-triazol-4-yl)methyl)-5-methyl-1H-1,2,4-triazol-3-ylthio)methyl)-1H-1,2,3-triazole]",8%,12%
CC(C)(C)c1n[nH]c(SCc2cn(Cc3ccccc3)nn2)n1 [1c],3%,11%
"CC(C)(C)c1nc(SCc2cn(Cc3ccccc3)nn2)nn1Cc1cn(Cc2ccccc2)nn1 [2c, 1-benzyl-4-((1-((1-benzyl-1H-1,2,3-triazol-4-yl)methyl)-5-tert-butyl-1H-1,2,4-triazol-3-ylthio)methyl)-1H-1,2,3-triazole]",8%,15%
"O=[N+]([O-])c1ccc(-c2nc(SCc3cn(Cc4ccccc4)nn3)n(Cc3cn(Cc4ccccc4)nn3)n2)cc1 [3d, 1-benzyl-4-((1-((1-benzyl-1H-1,2,3-triazol-4-yl)methyl)-3-(4-nitrophenyl)-1H-1,2,4-triazol-5-ylthio)methyl)-1H-1,2,3-triazole]",13%,11%
"c1ccc(Cn2cc(CSc3ncnn3Cc3cn(Cc4ccccc4)nn3)nn2)cc1 [3a, 1-benzyl-4-((1-((1-benzyl-1H-1,2,3-triazol-4-yl)methyl)-1H-1,2,4-triazol-5-ylthio)methyl)-1H-1,2,3-triazole]",8%,3%
"C=CCSc1n[nH]c(-c2ccc(OC)cc2)n1 [4e, 3-(allylthio)-5-(4-methoxyphenyl)-1H-1,2,4-triazole]",94%,93%
"C#CCn1nc(C(C)(C)C)nc1SCC=C [8c, 5-(allylthio)-3-tert-butyl-1-(prop-2-ynyl)-1H-1,2,4-triazole]",98%,79%
"C#CCS(=O)(=O)c1n[nH]c(C)n1 [7b, 3-methyl-5-(prop-2-ynylsulfonyl)-1H-1,2,4-triazole]",92%,82%
"C#CCS(=O)(=O)c1n[nH]c(-c2ccc(Cl)cc2)n1 [7f, 3-(4-chlorophenyl)-5-(prop-2-ynylsulfonyl)-1H-1,2,4-triazole]",88%,86%
"C=CCSc1nc(-c2ccc(OC)cc2)n(CC=C)n1 [5e, 1-allyl-3-(allylthio)-5-(4-methoxyphenyl)-1H-1,2,4-triazole]",89%,84%
"C=CCSc1nc(-c2ccc([N+](=O)[O-])cc2)nn1CC=C [6d, 1-allyl-5-(allylthio)-3-(4-nitrophenyl)-1H-1,2,4-triazole]",40%,12%
"C=CCSc1nc(C(C)(C)C)nn1CC=C [6c, 1-allyl-5-(allylthio)-3-tert-butyl-1H-1,2,4-triazole]",30%,33%
"Clc1ccc(-c2nc(SCc3cn(Cc4ccccc4)nn3)nn2Cc2cn(Cc3ccccc3)nn2)cc1 [2f, 1-benzyl-4-((1-((1-benzyl-1H-1,2,3-triazol-4-yl)methyl)-5-(4-chlorophenyl)-1H-1,2,4-triazol-3-ylthio)methyl)-1H-1,2,3-triazole]",21%,17%
"C=CCSc1nc(C)nn1CC=C [6b, 1-allyl-5-(allylthio)-3-methyl-1H-1,2,4-triazole]",22%,10%
"C#CCS(=O)(=O)c1n[nH]c(-c2ccc([N+](=O)[O-])cc2)n1 [7d, 3-(4-nitrophenyl)-5-(prop-2-ynylsulfonyl)-1H-1,2,4-triazole]",96%,91%
"C=CCSc1ncn(CC=C)n1 [5a, 1-allyl-3-(allylthio)-1H-1,2,4-triazole]",58%,42%
"C#CCSc1nc(C)n(CC=C)n1 [10b, 1-allyl-5-methyl-3-(prop-2ynylthio)-1H-1,2,4-triazole]",98%,92%
"C=CCSc1nc(-c2ccc(Cl)cc2)n(CC=C)n1 [5f, 1-allyl-3-(allylthio)-5-(4-chlorophenyl)-1H-1,2,4-triazole]",94%,91%
Cc1n[nH]c(SCc2cn(Cc3ccccc3)nn2)n1 [1b],10%,14%
